Data as given in the NIST ThermoML archive (doi:10.1016/j.jct.2015.08.019).
Numbers after ± are expanded uncertainties.

Test: excess molar enthalpy (molar enthalpy of mixing); xn = mol fraction of the nth substance listed
Conditions: 473 K, 101.3 kPa, Crystal, Calvet calorimetry

Work on O=[N+]([O-])[O-].[Tl+] [thallium nitrate] + O=[N+]([O-])[O-].[Cs+] yielded an excess molar enthalpy (x2 = 0.25) of 0.299 ± 0.0621 kcal/mol, an excess molar enthalpy (x2 = 0.5) of 0.343 ± 0.0717 kcal/mol and an excess molar enthalpy (x2 = 0.75) of 0.248 ± 0.0526 kcal/mol.
